Measured values published in ChEMBL document CHEMBL3885881, “DrugMatrix”.

Organism: Rattus norvegicus
Experiment: DrugMatrix - Regimen: Daily Repeat
Format: toxicity, organism-based, Sprague-Dawley
Parameters: regimen Daily Repeat, gender Male, age 6-8 weeks
Conditions: in vivo, po, route oral GAVAGE, […]; for ABSOLUTE BASOPHIL / ABSOLUTE EOSINOPHIL / ABSOLUTE LYMPHOCYTE / ABSOLUTE MONOCYTE / ABSOLUTE SEGMENTED NEUTROPHIL / BASOPHIL / EOSINOPHIL / ERYTHROCYTE COUNT / HEMATOCRIT / HEMOGLOBIN / LEUKOCYTE COUNT / LYMPHOCYTE / MEAN CORPUSCULAR HEMOGLOBIN / MEAN CORPUSCULAR HEMOGLOBIN CONCENTRATION / MEAN CORPUSCULAR VOLUME / MONOCYTE / NEUTROPHIL / NUCLEATED RED BLOOD CELLS / PLATELET COUNT: tissue Blood; for ALANINE AMINOTRANSFERASE / ALBUMIN / ALKALINE PHOSPHATASE / ASPARTATE AMINOTRANSFERASE / BLOOD UREA NITROGEN / CARBON DIOXIDE / CHLORIDE / CHOLESTEROL / CREATINE PHOSPHOKINASE / CREATININE / GLUCOSE / LACTATE DEHYDROGENASE / LIPASE / PHOSPHORUS / POTASSIUM / SODIUM / TOTAL BILIRUBIN / TOTAL PROTEIN / URIC ACID: tissue Plasma
[1] = 0 mg/kg, 72 h, dose level Control, time 3 day
[2] = 0 mg/kg, 120 h, dose level Control, time 5 day
[3] = 0.6 mg/kg, 72 h, dose level Low, time 3 day

Compound: O=C(O)CCCc1ccc(N(CCCl)CCCl)cc1 [CHLORAMBUCIL]
- ABSOLUTE BASOPHIL [1]: 0 CELLS/uL
- ABSOLUTE EOSINOPHIL [1]: 104.17 CELLS/uL
- ABSOLUTE LYMPHOCYTE [1]: 14547 CELLS/uL
- ABSOLUTE MONOCYTE [1]: 292 CELLS/uL
- ABSOLUTE SEGMENTED NEUTROPHIL [1]: 1640.17 CELLS/uL
- BASOPHIL [1]: 0%
- EOSINOPHIL [1]: 0.67%
- ERYTHROCYTE COUNT [1]: 5.35 x10E6/uL
- HEMATOCRIT [1]: 33.67%
- HEMOGLOBIN [1]: 13.38 G/DL
- LEUKOCYTE COUNT [1]: 16.58 x10E3/uL
- LYMPHOCYTE [1]: 87.5%
- MEAN CORPUSCULAR HEMOGLOBIN [1]: 25.05 pg
- MEAN CORPUSCULAR HEMOGLOBIN CONCENTRATION [1]: 39.78 G/DL
- MEAN CORPUSCULAR VOLUME [1]: 62.97 fL
- MONOCYTE [1]: 1.83%
- NEUTROPHIL [1]: 10%
- NUCLEATED RED BLOOD CELLS [1]: 0 /100WBC
- PLATELET COUNT [1]: 1274.5 x10E3/uL
- ALANINE AMINOTRANSFERASE [1]: 76.83 u/L
- ALBUMIN [1]: 3.97 G/DL
- ALKALINE PHOSPHATASE [1]: 347 u/L
- ASPARTATE AMINOTRANSFERASE [1]: 97.17 u/L
- BLOOD UREA NITROGEN [1]: 14.33 mg/dL
- CARBON DIOXIDE [1]: 25.5 mmol/L
- CHLORIDE [1]: 100.33 MEQ/L
- CHOLESTEROL [1]: 68.67 mg/dL
- CREATINE PHOSPHOKINASE [1]: 659.17 u/L
- CREATININE [1]: 0.32 mg/dL
- GLUCOSE [1]: 160.67 mg/dL
- LACTATE DEHYDROGENASE [1]: 271.5 u/L
- LIPASE [1]: 11.67 u/L
- PHOSPHORUS [1]: 10.65 mg/dL
- POTASSIUM [1]: 5.95 MEQ/L
- SODIUM [1]: 139.65 MEQ/L
- TOTAL BILIRUBIN [1]: 0.2 mg/dL
- TOTAL PROTEIN [1]: 5.72 G/DL
- URIC ACID [1]: 1.37 mg/dL
- ABSOLUTE BASOPHIL [2]: 0 CELLS/uL
- ABSOLUTE EOSINOPHIL [2]: 331.5 CELLS/uL
- ABSOLUTE LYMPHOCYTE [2]: 15021.67 CELLS/uL
- ABSOLUTE MONOCYTE [2]: 376.5 CELLS/uL
- ABSOLUTE SEGMENTED NEUTROPHIL [2]: 3070.33 CELLS/uL
- BASOPHIL [2]: 0%
- EOSINOPHIL [2]: 1.83%
- ERYTHROCYTE COUNT [2]: 5.24 x10E6/uL
- HEMATOCRIT [2]: 33.22%
- HEMOGLOBIN [2]: 13.2 G/DL
- LEUKOCYTE COUNT [2]: 18.8 x10E3/uL
- LYMPHOCYTE [2]: 79.67%
- MEAN CORPUSCULAR HEMOGLOBIN [2]: 25.17 pg
- MEAN CORPUSCULAR HEMOGLOBIN CONCENTRATION [2]: 39.73 G/DL
- MEAN CORPUSCULAR VOLUME [2]: 63.38 fL
- MONOCYTE [2]: 2%
- NEUTROPHIL [2]: 16.5%
- NUCLEATED RED BLOOD CELLS [2]: 0 /100WBC
- PLATELET COUNT [2]: 1142.67 x10E3/uL
- ALANINE AMINOTRANSFERASE [2]: 52.5 u/L
- ALBUMIN [2]: 3.9 G/DL
- ALKALINE PHOSPHATASE [2]: 284.5 u/L
- ASPARTATE AMINOTRANSFERASE [2]: 81.33 u/L
- BLOOD UREA NITROGEN [2]: 16 mg/dL
- CARBON DIOXIDE [2]: 25.33 mmol/L
- CHLORIDE [2]: 99.5 MEQ/L
- CHOLESTEROL [2]: 74.83 mg/dL
- CREATINE PHOSPHOKINASE [2]: 448.33 u/L
- CREATININE [2]: 0.37 mg/dL
- GLUCOSE [2]: 164.17 mg/dL
- LACTATE DEHYDROGENASE [2]: 290.67 u/L
- LIPASE [2]: 6.83 u/L
- PHOSPHORUS [2]: 11.5 mg/dL
- POTASSIUM [2]: 6.28 MEQ/L
- SODIUM [2]: 139.5 MEQ/L
- TOTAL BILIRUBIN [2]: 0.13 mg/dL
- TOTAL PROTEIN [2]: 5.55 G/DL
- URIC ACID [2]: 1.12 mg/dL
- ABSOLUTE BASOPHIL [3]: 0 CELLS/uL
- ABSOLUTE EOSINOPHIL [3]: 134 CELLS/uL
- ABSOLUTE LYMPHOCYTE [3]: 11100 CELLS/uL
- ABSOLUTE MONOCYTE [3]: 438.67 CELLS/uL
- ABSOLUTE SEGMENTED NEUTROPHIL [3]: 1260.67 CELLS/uL
- BASOPHIL [3]: 0%
- EOSINOPHIL [3]: 1%
- ERYTHROCYTE COUNT [3]: 5.4 x10E6/uL
- HEMATOCRIT [3]: 34.47%
- HEMOGLOBIN [3]: 13.6 G/DL
- LEUKOCYTE COUNT [3]: 12.93 x10E3/uL
- LYMPHOCYTE [3]: 86%
- MEAN CORPUSCULAR HEMOGLOBIN [3]: 25.2 pg
- MEAN CORPUSCULAR HEMOGLOBIN CONCENTRATION [3]: 39.43 G/DL
- MEAN CORPUSCULAR VOLUME [3]: 63.87 fL
- MONOCYTE [3]: 3.33%
- NEUTROPHIL [3]: 9.67%
- NUCLEATED RED BLOOD CELLS [3]: 0 /100WBC
- PLATELET COUNT [3]: 1307.67 x10E3/uL
- ALANINE AMINOTRANSFERASE [3]: 68 u/L
- ALBUMIN [3]: 3.93 G/DL
- ALKALINE PHOSPHATASE [3]: 423 u/L
- ASPARTATE AMINOTRANSFERASE [3]: 81.33 u/L
- BLOOD UREA NITROGEN [3]: 13.33 mg/dL
- CARBON DIOXIDE [3]: 25.33 mmol/L
- CHLORIDE [3]: 101 MEQ/L
- CHOLESTEROL [3]: 71 mg/dL
- CREATINE PHOSPHOKINASE [3]: 316.67 u/L
- CREATININE [3]: 0.26 mg/dL
- GLUCOSE [3]: 153.33 mg/dL
- LACTATE DEHYDROGENASE [3]: 99.67 u/L
- LIPASE [3]: 13 u/L
- PHOSPHORUS [3]: 11.17 mg/dL
- POTASSIUM [3]: 5.8 MEQ/L
- SODIUM [3]: 140.37 MEQ/L
- TOTAL BILIRUBIN [3]: 0.17 mg/dL
- TOTAL PROTEIN [3]: 5.67 G/DL
- URIC ACID [3]: 1.1 mg/dL
